# Test results published in paper PMC5218480 (PLoS ONE, 2017).
# System: MV-4-11 cells
# Assay: Gene expression microarray analysis (Affymetrix PrimeView) and GSEA
# Assay type: cell-based, human
# Design: RFU PODN (11730768_x_at) / Fold change /veh PODN (11730768_x_at) / RFU LINC00158 (11744669_a_at) / Fold change /veh LINC00158 (11744669_a_at) / RFU DUSP10 (11751237_a_at) / Fold change /veh DUSP10 (11751237_a_at) / RFU ID3 (11757404_x_at) / Fold change /veh ID3 (11757404_x_at) / RFU PLEKHG5 (11737974_s_at) / Fold change /veh PLEKHG5 (11737974_s_at) / RFU LRRC4B (11730491_at) / Fold change /veh LRRC4B (11730491_at) / RFU GIMAP4 (11747438_a_at) / Fold change /veh GIMAP4 (11747438_a_at) / RFU KRT8 (11758183_x_at) / Fold change /veh KRT8 (11758183_x_at) / RFU CNN1 (11734310_a_at) / Fold change /veh CNN1 (11734310_a_at) / RFU VPS37D (11726825_at) / Fold change /veh VPS37D (11726825_at) / RFU C10orf10 (11716522_x_at) / Fold change /veh C10orf10 (11716522_x_at) / RFU KIR2DL2 /// KIR2DL4 /// KIR2DL5A /// KIR2DL5B /// KIR2DS1 /// KIR2DS2 /// KIR2DS3 /// KIR2DS4 /// KIR3DL3 /// KIR3DL3 /// KIR3DS1 (11738374_at) / Fold change /veh KIR2DL2 /// KIR2DL4 /// KIR2DL5A /// KIR2DL5B /// KIR2DS1 /// KIR2DS2 /// KIR2DS3 /// KIR2DS4 /// KIR3DL3 /// KIR3DL3 /// KIR3DS1 (11738374_at) / RFU C1QL1 (11718748_at) / Fold change /veh C1QL1 (11718748_at) / RFU TMPRSS4 (11747572_a_at) / Fold change /veh TMPRSS4 (11747572_a_at) / RFU HAMP (11756126_x_at) / Fold change /veh HAMP (11756126_x_at) / RFU RNFT2 (11725882_a_at) / Fold change /veh RNFT2 (11725882_a_at) / RFU NR4A2 (11747474_a_at) / Fold change /veh NR4A2 (11747474_a_at) / RFU ABCC12 (11746883_a_at) / Fold change /veh ABCC12 (11746883_a_at) / RFU TMEM136 (11760407_x_at) / Fold change /veh TMEM136 (11760407_x_at) / RFU CLDN22 /// WWC2 (11732394_at) / Fold change /veh CLDN22 /// WWC2 (11732394_at) / RFU HLA-DPB1 (11760878_x_at) / Fold change /veh HLA-DPB1 (11760878_x_at) / RFU SPINT1 (11716480_a_at) / Fold change /veh SPINT1 (11716480_a_at) / RFU GAP43 (11754022_s_at) / Fold change /veh GAP43 (11754022_s_at) / RFU A4GNT (11735810_at) / Fold change /veh A4GNT (11735810_at) / RFU PRB3 (11715151_x_at) / Fold change /veh PRB3 (11715151_x_at) / RFU TUBB4B (11761932_at) / Fold change /veh TUBB4B (11761932_at) / RFU CAPN14 (11732068_a_at) / Fold change /veh CAPN14 (11732068_a_at) / RFU TMCC2 (11721928_a_at) / Fold change /veh TMCC2 (11721928_a_at) / RFU IRGQ (11745062_a_at) / Fold change /veh IRGQ (11745062_a_at) / RFU FAM174B (11720279_a_at) / Fold change /veh FAM174B (11720279_a_at) / RFU TMPRSS4 (11748680_a_at) / Fold change /veh TMPRSS4 (11748680_a_at) / RFU FAM212B (11763350_a_at) / Fold change /veh FAM212B (11763350_a_at) / RFU PLEKHG5 (11743358_a_at) / Fold change /veh PLEKHG5 (11743358_a_at) / RFU ZSCAN30 (11745921_a_at) / Fold change /veh ZSCAN30 (11745921_a_at) / RFU CMKLR1 (11741424_a_at) / Fold change /veh CMKLR1 (11741424_a_at) / RFU LOC101060620 /// MAPK8IP1 (11723275_at) / Fold change /veh LOC101060620 /// MAPK8IP1 (11723275_at) / RFU SPTSSB (11747773_x_at) / Fold change /veh SPTSSB (11747773_x_at) / RFU PRSS12 (11739890_at) / Fold change /veh PRSS12 (11739890_at) / RFU BIN1 (11741810_x_at) / Fold change /veh BIN1 (11741810_x_at) / RFU WNT11 (11732464_a_at) / Fold change /veh WNT11 (11732464_a_at) / RFU C10orf10 (11716521_a_at) / Fold change /veh C10orf10 (11716521_a_at) / RFU C5orf56 (11738089_at) / Fold change /veh C5orf56 (11738089_at) / RFU CYB561 (11721691_x_at) / Fold change /veh CYB561 (11721691_x_at) / RFU ANKRD19P (11752326_a_at) / Fold change /veh ANKRD19P (11752326_a_at) / RFU OR2T12 /// OR2T33 /// OR2T8 (11738714_s_at) / Fold change /veh OR2T12 /// OR2T33 /// OR2T8 (11738714_s_at) / RFU VCAN (11748164_a_at) / Fold change /veh VCAN (11748164_a_at) / RFU JSRP1 (11732532_at) / Fold change /veh JSRP1 (11732532_at) / RFU KRTAP10-11 (11738290_x_at) / Fold change /veh KRTAP10-11 (11738290_x_at) / RFU MYO3A (11730013_a_at) / Fold change /veh MYO3A (11730013_a_at) / RFU EBF3 (11725865_a_at) / Fold change /veh EBF3 (11725865_a_at) / RFU CAMK2N1 (11719241_x_at) / Fold change /veh CAMK2N1 (11719241_x_at) / RFU C5orf56 (11738088_a_at) / Fold change /veh C5orf56 (11738088_a_at) / RFU OLFML3 (11715873_a_at) / Fold change /veh OLFML3 (11715873_a_at) / RFU LOC100653217 /// NTM (11731650_a_at) / Fold change /veh LOC100653217 /// NTM (11731650_a_at) / RFU MAPK11 (11762145_a_at) / Fold change /veh MAPK11 (11762145_a_at) / RFU FIZ1 (11724087_x_at) / Fold change /veh FIZ1 (11724087_x_at) / RFU OASL (11726364_x_at) / Fold change /veh OASL (11726364_x_at) / RFU SOX15 (11748057_x_at) / Fold change /veh SOX15 (11748057_x_at) / RFU CD79A (11719716_a_at) / Fold change /veh CD79A (11719716_a_at) / RFU HIST1H1D (11736915_at) / Fold change /veh HIST1H1D (11736915_at) / RFU CASKIN2 (11723855_a_at) / Fold change /veh CASKIN2 (11723855_a_at) / RFU LOC730098 (11760151_x_at) / Fold change /veh LOC730098 (11760151_x_at) / RFU OR4N2 (11742367_at) / Fold change /veh OR4N2 (11742367_at) / RFU PRRT2 (11749266_a_at) / Fold change /veh PRRT2 (11749266_a_at) / RFU SNX32 (11753110_a_at) / Fold change /veh SNX32 (11753110_a_at) / RFU CDHR5 (11726645_a_at) / Fold change /veh CDHR5 (11726645_a_at) / RFU RCAN1 (11760418_a_at) / Fold change /veh RCAN1 (11760418_a_at) / RFU FAM167A (11723789_a_at) / Fold change /veh FAM167A (11723789_a_at) / RFU FAM26E (11764081_at) / Fold change /veh FAM26E (11764081_at) / RFU ISYNA1 (11749810_s_at) / Fold change /veh ISYNA1 (11749810_s_at) / RFU ACY1 (11761880_at) / Fold change /veh ACY1 (11761880_at) / RFU 11764098_at / Fold change /veh 11764098_at / RFU SAMD14 (11745864_x_at) / Fold change /veh SAMD14 (11745864_x_at) / RFU NPB (11741838_a_at) / Fold change /veh NPB (11741838_a_at) / RFU TMPRSS6 (11731388_a_at) / Fold change /veh TMPRSS6 (11731388_a_at) / RFU KRTAP10-2 (11738614_at) / Fold change /veh KRTAP10-2 (11738614_at) / RFU ARHGAP8 /// PRR5-ARHGAP8 (11727945_x_at) / Fold change /veh ARHGAP8 /// PRR5-ARHGAP8 (11727945_x_at) / RFU KRTAP5-7 /// NADSYN1 (11734609_at) / Fold change /veh KRTAP5-7 /// NADSYN1 (11734609_at) / RFU RASL12 (11751679_a_at) / Fold change /veh RASL12 (11751679_a_at) / RFU CDKN2B (11736163_a_at) / Fold change /veh CDKN2B (11736163_a_at) / RFU PRF1 (11729649_at) / Fold change /veh PRF1 (11729649_at) / RFU, ZNF638 /// ZNF638-IT1 / Fold change vs veh, ZNF638 /// ZNF638-IT1 / RFU, PANK3 / Fold change vs veh, PANK3 / RFU, SH3YL1 / Fold change vs veh, SH3YL1 / RFU, ZEB2 / Fold change vs veh, ZEB2 / RFU, NRIP1 / Fold change vs veh, NRIP1 / RFU, PTTG1IP / Fold change vs veh, PTTG1IP / RFU, CAPN2 / Fold change vs veh, CAPN2 / RFU, MED14 / Fold change vs veh, MED14 / RFU, SNORA58 / Fold change vs veh, SNORA58 / RFU, C1orf63 / Fold change vs veh, C1orf63 / RFU, LRRFIP1 / Fold change vs veh, LRRFIP1 / RFU, NDUFAF7 / Fold change vs veh, NDUFAF7 / RFU, SLC12A2 / Fold change vs veh, SLC12A2 / RFU, IBTK / Fold change vs veh, IBTK / RFU, ESF1 / Fold change vs veh, ESF1 / Fold change vs veh, TMEM50B / RFU, TAOK1 / Fold change vs veh, TAOK1 / RFU, ACBD3 / Fold change vs veh, ACBD3 / RFU, TMA16 / Fold change vs veh, TMA16 / RFU, RWDD3 / Fold change vs veh, RWDD3 / RFU, BCAT1 / Fold change vs veh, BCAT1 / RFU, EDEM3 / Fold change vs veh, EDEM3 / RFU, TMEM33 / Fold change vs veh, TMEM33 / RFU, WDR75 / Fold change vs veh, WDR75 / RFU, AHCTF1 / Fold change vs veh, AHCTF1 / RFU, TFRC / Fold change vs veh, TFRC / RFU, ZDHHC17 / Fold change vs veh, ZDHHC17 / RFU, NOM1 / Fold change vs veh, NOM1 / RFU, ARL8B / Fold change vs veh, ARL8B / RFU, ZBTB11 / Fold change vs veh, ZBTB11 / RFU, TAMM41 / Fold change vs veh, TAMM41 / RFU, KIAA1704 /// LOC100996395 / Fold change vs veh, KIAA1704 /// LOC100996395 / RFU, ING1 / Fold change vs veh, ING1 / RFU, TRMT61B / Fold change vs veh, TRMT61B / RFU, FUBP3 / Fold change vs veh, FUBP3 / RFU, TP53 / Fold change vs veh, TP53 / RFU, TNKS2 / Fold change vs veh, TNKS2 / RFU, ZFP14 / Fold change vs veh, ZFP14 / RFU, ACTR2 / Fold change vs veh, ACTR2 / RFU, PPP3R1 / Fold change vs veh, PPP3R1 / RFU, PIK3R1 / Fold change vs veh, PIK3R1 / RFU, HNRNPA1 / Fold change vs veh, HNRNPA1 / RFU, RNF170 / Fold change vs veh, RNF170 / RFU, ZNF28 / Fold change vs veh, ZNF28 / RFU, RNGTT / Fold change vs veh, RNGTT / RFU, OGT / Fold change vs veh, OGT / RFU, BRD1 / Fold change vs veh, BRD1 / RFU, MARS / Fold change vs veh, MARS / RFU, ZNF655 / Fold change vs veh, ZNF655 / RFU, FAHD1 / Fold change vs veh, FAHD1 / RFU, BDP1 / Fold change vs veh, BDP1 / RFU, LRRCC1 / Fold change vs veh, LRRCC1 / RFU, ARID1A / Fold change vs veh, ARID1A / RFU, ZNF146 / Fold change vs veh, ZNF146 / RFU, ZNF330 / Fold change vs veh, ZNF330 / RFU, GPN3 / Fold change vs veh, GPN3 / RFU, C9orf123 / Fold change vs veh, C9orf123 / RFU, N4BP2L2 / Fold change vs veh, N4BP2L2 / RFU, ARFIP1 / Fold change vs veh, ARFIP1 / RFU, FAM179B / Fold change vs veh, FAM179B / RFU, BCL10 / Fold change vs veh, BCL10 / RFU, UHRF1BP1L / Fold change vs veh, UHRF1BP1L / RFU, BET1 / Fold change vs veh, BET1 / RFU, CNOT2 / Fold change vs veh, CNOT2 / RFU, ZNF268 / Fold change vs veh, ZNF268 / Fold change vs veh, ZNF507 / RFU, DGCR2 / Fold change vs veh, DGCR2 / RFU, WDSUB1 / Fold change vs veh, WDSUB1 / Fold change vs veh, HSP90B1 /// MIR3652 / RFU, ADSS / Fold change vs veh, ADSS / RFU, GK / Fold change vs veh, GK / RFU, ZNF148 / Fold change vs veh, ZNF148 / RFU, TAF9 / Fold change vs veh, TAF9 / RFU, SLC1A5 / Fold change vs veh, SLC1A5 / RFU, SLMO2 / Fold change vs veh, SLMO2 / RFU, ABCC4 / Fold change vs veh, ABCC4 / RFU, LOC101060439 /// RAP1B / Fold change vs veh, LOC101060439 /// RAP1B / RFU, RFX7 / Fold change vs veh, RFX7 / RFU, GTPBP10 / Fold change vs veh, GTPBP10 / RFU, CNEP1R1 / Fold change vs veh, CNEP1R1 / RFU, BIVM-ERCC5 /// ERCC5 / Fold change vs veh, BIVM-ERCC5 /// ERCC5 / RFU, ILF3 / Fold change vs veh, ILF3 / RFU 11762660_at / Fold change /veh 11762660_at / RFU VCAN (11757783_s_at) / Fold change /veh VCAN (11757783_s_at) / RFU DDX43 (11728927_at) / Fold change /veh DDX43 (11728927_at) / RFU KRT8 (11758188_x_at) / Fold change /veh KRT8 (11758188_x_at) / RFU NKD1 (11759106_at) / Fold change /veh NKD1 (11759106_at) / RFU SRD5A1 (11742802_a_at) / Fold change /veh SRD5A1 (11742802_a_at) / RFU TPSAB1 /// TPSB2 (11721975_s_at) / Fold change /veh TPSAB1 /// TPSB2 (11721975_s_at) / RFU GSTM3 (11746129_a_at) / Fold change /veh GSTM3 (11746129_a_at) / RFU IL23R (11737362_x_at) / Fold change /veh IL23R (11737362_x_at) / RFU TMEM51 (11727254_a_at) / Fold change /veh TMEM51 (11727254_a_at) / RFU PIWIL2 (11732686_x_at) / Fold change /veh PIWIL2 (11732686_x_at) / RFU ORM1 (11744905_x_at) / Fold change /veh ORM1 (11744905_x_at) / RFU CCDC152 (11743942_at) / Fold change /veh CCDC152 (11743942_at) / RFU ECM1 (11717891_a_at) / Fold change /veh ECM1 (11717891_a_at) / RFU IL23R (11748794_a_at) / Fold change /veh IL23R (11748794_a_at) / RFU TNFAIP8L3 (11732012_x_at) / Fold change /veh TNFAIP8L3 (11732012_x_at) / RFU MBOAT4 (11741988_at) / Fold change /veh MBOAT4 (11741988_at) / RFU 11764193_at / Fold change /veh 11764193_at / RFU TMEM53 (11763286_at) / Fold change /veh TMEM53 (11763286_at) / RFU MAGEB2 (11727129_at) / Fold change /veh MAGEB2 (11727129_at) / RFU TMEM200A (11744735_a_at) / Fold change /veh TMEM200A (11744735_a_at) / RFU CCDC152 (11751479_a_at) / Fold change /veh CCDC152 (11751479_a_at) / RFU FAM211A (11726209_a_at) / Fold change /veh FAM211A (11726209_a_at) / RFU RGS16 (11746705_a_at) / Fold change /veh RGS16 (11746705_a_at) / RFU VCAN (11755009_s_at) / Fold change /veh VCAN (11755009_s_at) / RFU RHOB (11743442_s_at) / Fold change /veh RHOB (11743442_s_at) / RFU RGS16 (11720943_a_at) / Fold change /veh RGS16 (11720943_a_at) / RFU RGS16 (11720944_at) / Fold change /veh RGS16 (11720944_at) / RFU, VPS4B / Fold change vs veh, VPS4B / RFU, CREB1 / Fold change vs veh, CREB1 / RFU, DNAJC13 / Fold change vs veh, DNAJC13 / RFU, GNAQ / Fold change vs veh, GNAQ / RFU, CDK5R1 / Fold change vs veh, CDK5R1 / RFU, ZRANB3 / Fold change vs veh, ZRANB3 / RFU, CUL4A / Fold change vs veh, CUL4A / RFU, CCNY / Fold change vs veh, CCNY / RFU, UFL1 / Fold change vs veh, UFL1 / RFU, COG3 / Fold change vs veh, COG3 / RFU, DIAPH2 / Fold change vs veh, DIAPH2 / RFU, SKA2 / Fold change vs veh, SKA2 / RFU, AFF3 / Fold change vs veh, AFF3 / RFU, LMF1 / Fold change vs veh, LMF1 / RFU, IPO11 / Fold change vs veh, IPO11 / RFU, DFFB / Fold change vs veh, DFFB / RFU, FOXP1 / Fold change vs veh, FOXP1 / RFU, CARD8 / Fold change vs veh, CARD8 / RFU, STRN3 / Fold change vs veh, STRN3 / RFU, ADK / Fold change vs veh, ADK / RFU, RASSF2 / Fold change vs veh, RASSF2 / RFU, WIPF1 / Fold change vs veh, WIPF1 / RFU, LARP1B / Fold change vs veh, LARP1B / RFU, RASA1 / Fold change vs veh, RASA1 / RFU, RB1 / Fold change vs veh, RB1 / RFU, PPFIA1 / Fold change vs veh, PPFIA1 / RFU, MAT2A / Fold change vs veh, MAT2A / RFU, CCT5 / Fold change vs veh, CCT5 / RFU, WDR92 / Fold change vs veh, WDR92 / RFU, CUX1 / Fold change vs veh, CUX1 / RFU, TTC7A / Fold change vs veh, TTC7A / RFU, TMEM135 / Fold change vs veh, TMEM135 / RFU, DEPTOR / Fold change vs veh, DEPTOR / RFU, CPM / Fold change vs veh, CPM / RFU, DNAJB6 / Fold change vs veh, DNAJB6 / RFU, CACNA2D3 / Fold change vs veh, CACNA2D3 / RFU, DTX4 / Fold change vs veh, DTX4 / RFU, TFCP2 / Fold change vs veh, TFCP2 / RFU, GMCL1 /// GMCL1P1 / Fold change vs veh, GMCL1 /// GMCL1P1 / RFU, AEBP2 / Fold change vs veh, AEBP2 / RFU, SNHG1 /// SNORD22 /// SNORD25 /// SNORD26 /// SNORD27 /// SNORD28 /// SNORD29 /// SNORD31 / Fold change vs veh, SNHG1 /// SNORD22 /// SNORD25 /// SNORD26 /// SNORD27 /// SNORD28 /// SNORD29 /// SNORD31 / Fold change (Aza/veh), C12orf56 (ProbeSet 11735607_a_at) / Fold change (ACY-1035/veh), C12orf56 (ProbeSet 11735607_a_at) / Fold change (Aza/veh), FGFR1OP (ProbeSet 11751329_s_at) / Fold change (ACY-1035/veh), FGFR1OP (ProbeSet 11751329_s_at) / Fold change (Aza/veh), VPS36 (ProbeSet 11739960_a_at) / Fold change (ACY-1035/veh), VPS36 (ProbeSet 11739960_a_at) / RFU SYPL1 (11715823_x_at) / Fold change /veh SYPL1 (11715823_x_at) / RFU IGFBP7 (11715501_s_at) / Fold change /veh IGFBP7 (11715501_s_at) / RFU REEP3 (11722064_at) / Fold change /veh REEP3 (11722064_at) / RFU IGLL1 (11728026_x_at) / Fold change /veh IGLL1 (11728026_x_at): dose or concentration left out as unconfirmed
# Settings: ProbeSet 11716931_at; LIST B
smiles,measurement,value
Nc1ncn([C@@H]2O[C@H](CO)[C@@H](O)[C@H]2O)c(=O)n1 [azacitidine],"RFU, DGCR2",177.81 RFU
